Data taken from patent US10265270B2, “Solid dispersion of decoquinate, a preparation process and its application” (GUANGZHOU CAS LAMVAC BIOTECH CO., LTD., priority 2015, dated 2019).

How the values were obtained:
Plasmodium berghei ANKA = test: In vivo efficacy experiment, mice inoculated with sporozoites; details: NIH female mice, after 21 days; DQ 3, 10, 30 mg/kg; primaquine 30 mg/kg
Method: The NIH female mice used for the experiment were raised at least for 7 days after arrival. At the start of experiment, the mice were 7 weeks old. Only one mouse was housed in each cage maintained in a room with a temperature range of 18 to 26° C., a relative humidity of 34% to 68% in a 12/12 h light-dark cycle. Food and water were provided ad libitum during quarantine and throughout the study. This experiment was carried out in strict accordance with the relevant animal testing regulations (Guide for the Care and Use of Laboratory Animals, NRC publication, 2011 edition). The DQ suspension used in the animal experiment was from the product of Example 1, prepared with saline and subjected to ultrasonic treatment for 5 minutes. […] The detection of Plasmodium parasitemia was performed as follows: conventional method was used to count red blood cells per mm^3 of blood in that a thin film of blood was prepared and stained with 3% Giemsa for 20 minutes; and then the number of infected red blood cells per 1000 red blood cells was counted under oil microscope to obtain erythrocyte infected rate (EIR, %o). Survival rate was calculated on day 22 post-infection.
The dosage of product of Example 1 was calculated based on decoquinate mg/kg body weight, the negative control group used was saline, and the positive control group used 30 mg primaquine per kg body weight. […]

[1] = Thermogravimetric analysis; assay type: physicochemical; details: at 250.5° C., heating rate 10° C./min, nitrogen
Method: The pure DQ was weighed for thermogravimetric analysis. The instruments used in the analysis included a balance with 0.0001 accuracy (Sartorius, available from Sartorius Scientific Instruments, Model: BSA124S) and a thermogravimetric analyzer (NETZSCH, Model: TG209F1, Germany).
Detection conditions, nitrogen: 20 mL/min, scanning procedures: temperature was increased to 350° C. from room temperature, heating rate: 10° C./min; detection was performed based on the General Rules for Thermal Analysis JY/T014-1996.

[2] = In vitro dissolution test (paddle method); assay type: physicochemical; details: cumulative in vitro dissolution rate, 0.1 N HCl and 10 mM SDS, 37° C., 50 rpm
Method: The dissolution medium was a solution of 0.1 N hydrochloric acid (HCl) and 10 mM sodium dodecyl sulfonate (SDS). The instrument used in the test was RC-6 dissolution rate apparatus (Tianjin). The instrument parameters were set to 37° C., 50 rpm, the paddle method. To each dissolution vessel was added 900 ml of dissolution medium followed by initiating the instrument. When the temperature of the medium in each vessel reached 37° C., corresponding testing sample was added. One ml of sample solution was taken out at time points of 10, 20, 40, 60, 90, 120, 180, 240 and 270 minute respectively, and then 1 ml of dissolution medium was added back to supplement the vessel volume. The sample solutions collected from dissolution testing was passed through a 0.45 μm filter and the filtrate was analyzed by HPLC (Agilent, 1260) to determine the amount of DQ. An isocratic mobile phase of 80% ethanol and 20% water and a wavelength 260 nm were chosen for HPLC analysis.

Row | SMILES | animal survival (Plasmodium berghei ANKA) | amount of DQ remaining by weight in thermogravimetric analysis [1] | Dissolved at 60 min ([2]; 60 min) | Dissolved at 90 min ([2]; 90 min)
1 | COc1cc(NC(C)CCCN)c2ncccc2c1 (stereo not shown) [primaquine] | all animals survived |  |  | 
2 | CCCCCCCCCCOc1cc2c(O)c(C(=O)OCC)cnc2cc1OCC [Pure DQ, Decoquinate] |  | 99 % by weight | 6.87 | 14.60
